Measured values from patent publication US20260216182A1, “PYRIDAZINE NLRP3 INHIBITOR COMPOUND, PHARMACEUTICAL COMPOSITION, AND PREPARATION METHOD THEREFOR AND USE THEREOF” (CHANGCHUN GENESCIENCE PHARMACEUTICAL CO., LTD., priority 2022, published 2026).
Where two headings read alike, the source gives them in different places.

Experiments:
NLRP3 = target: T1, NLRP3 (Homo sapiens, UniProt Q96P20); assay: IC50 of NLRP3 inhibitors in reducing IL-1β secretion by THP-1 cells (PMA, LPS, nigericin; ELISA); type: cell-based; conditions: compound + nigericin 1 h
T1 construct: endogenous in cells; host or cells: THP-1 (human monocyte, PMA-differentiated, LPS-primed, nigericin-stimulated)
Method: Test Example 1 Experiment on Detection of IC50 of NLRP3 Inhibitors in Reducing the Level of IL-1β Secretion by THP-1 Cells
In this experiment, we use the human monocyte THP-1 to study the inhibitory activity of NLRP3 inhibitor on the secretion of IL-Iβ by cells. Human THP-1 cells are treated with crotonol-12-tetradecanoate-13-acetate (PMA) to differentiate into mature macrophage models. Then, according to the two stages of inflammasome formation in cells (assembly and activation), the cells are stimulated with lipopolysaccharide (LPS) and nigericin in turn, ultimately promoting the extracellular release of IL-1β by THP-1 cells. The first stage of inflammasome formation involves stimulating cells with LPS (lipopolysaccharide), an agonist of the Toll-like receptor TLR4, to activate the expression of the inflammasome-associated proteins NLRP3, caspase 1, and pro-IL-1β, a precursor of IL-1β. The second stage of inflammasome formation involves the addition of the potassium ion carrier nigericin, which causes a series of membrane potential changes in THP-1 cells, destroys the cell membrane structure, causes the efflux of cellular potassium ions, further stimulates the oligomerization of NLRP3 monomers to form NLRP3 oligomers, and begins to recruit ASC and pro-caspase-1 to assemble the NLRP3 inflammasome complex containing a large amount of pro-caspase-1. The pro-caspase-1 on the activated NLRP3 inflammasome is enzymatically self-activated to form a large amount of active caspase-1. The activated caspase-1 further enzymatically promotes the conversion of pro-IL-1β into mature IL-1β that can be secreted.
(1) Cell suspensions were collected. The cells were centrifuged at 1000 rpm for 4 min, the supernatant was discarded, the cells were resuspended with 1 mL of test medium, and then the cell culture medium was gently pipetted up and down with a pipette and its tip to break up the cell aggregates. After counting the cells, the THP-1 cells were resuspended with complete RPMI medium 1640 containing PMA and seeded into 96-well plates and cultured in a 37° C., 5% CO2 incubator for 72 h.
(2) The culture medium was taken out from each well with an automatic plate washer dispenser EL406 and each well was rinsed twice with PBS. To each well, 96 μL of RPMI 1640 medium containing LPS was added. The cells were cultured in a 37° C., 5% CO2 incubator for 4 h.
(3) To each well, 2 μL of the compound and 2 μL of nigericin sodium salt were added, and the final compound concentration selected was 5000 nM, 1000 nM, 200 nM, 40 nM, 8 nM, 1.6 nM, 0.32 nM, 0 nM, respectively. The cells were cultured in a 37° C., 5% CO2 incubator for 1 h.
(4) An appropriate amount of supernatant was taken out, diluted 100 times, and the content of IL-1β in the supernatant was detected using Human IL-1 beta Valukine ELISA kit.

IL-1β [1] = assay: Mouse acute peritonitis model (LPS/ATP), IL-1β in peritoneal lavage fluid and blood; type: in vivo, C57BL/6 mice; conditions: 10 mg/kg oral; for inhibition at 10 mg/kg: Mus musculus, vs vehicle group
Method: Test Example 2: Mouse Acute Peritonitis Model Evaluation Experiment
Male C57BL/6 mice were orally administered with a 10 mg/kg dose of the test compound or control vehicle, and then injected intraperitoneally with 1 μg of E. coli 055: B5 ultrapure lipopolysaccharide (LPS) suspension 1 h later, followed by an intraperitoneal injection of 0.5 ml of 30 mM disodium salt ATP suspension (in PBS, the pH of the ATP solution was adjusted to 7.2 before injection) 2 h later. After 30 min, all animals would be euthanized by carbon dioxide, and blood and peritoneal lavage fluid would be collected. The peritoneal lavage fluid was kept at 4° C.
Preparation of peritoneal lavage fluid: The peritoneal cavity would be lavaged with ice-cold PBS (3 mL) containing 25 U/mL heparin and 10% heat-inactivated FBS. Prior to use, one tablet of the protease inhibitor mixture was added per 50 mL of buffer. The collected lavage fluid would be centrifuged (centrifugation conditions: 1000g, 4° C., 10 min) to remove cells and cell debris, and the clarified samples would be stored at −80° C. for measurement of cytokine IL-1β.
The mouse IL-1β/IL-1F2 DuoSet ELISA kit (R&D Systems) was used to measure the changes in IL-1β cytokine levels in peritoneal lavage fluid and serum. By comparing with the Vehical group, the inhibition rate of the compound on IL-1β was calculated.

IL-1β [2] = assay: MSU-induced rat air pouch model, IL-1β in exudate; type: in vivo, SD rats; conditions: FIG. 2
Method: Test Example 4 MSU-Induced Rat Air Pouch Model Test
Male SD rats were used in this experiment. After an adaptation period, a dorsal air pouch model was established. On the first, fourth and seventh days of the molding, 20 ml of sterile air was injected subcutaneously into the back of the rat with an injection needle to maintain the inflation of the air pouch. On the eighth day, different doses of the compound or vehicle control were administered by oral gavage. 25 mg of sodium urate suspension was injected into the dorsal air pouch, and 5 h later, the air pouch exudate was collected. The exudate was centrifuged at 1500 rpm for 20 min, and the supernatant was collected and the IL-Iβ production was detected by ELISA (R&D, Ra1 IL-1β kit).

IL-1β [3] = assay: Zymosan A-induced rat pericarditis model; type: in vivo, SD rats
Method: Test Example 5 Zymosan A-Induced Rat Pericarditis Model Test
In this experiment, SD rats were used and 150 μL of a mixture of 50 mg/mL ZymosanA and normal saline was injected into the pericardial cavity to induce a rat pericarditis model and conduct a pharmacodynamic observation experiment. The day of modeling was designated as Day 1. The animals were weighed and randomly divided into groups one day before modeling, namely, G1 normal group, G2 model group, G3 compound 062-10 mg/kg group, G4 compound 062-30 mg/kg group, G5 colchicine-100 μg/kg group, with 7+1* animals in each group (one extra animal was reserved for each group, considering that animals may die during model establishment). After the model was established, oral administration began, once a day, for 7 consecutive days. At the end of the experiment, the animals were euthanized, the muscles were cut open at the third and fourth rib regions to expose the heart, the pericardium was carefully lifted with forceps, and as much pericardial effusion (if any) as possible was extracted with a 1 ml syringe. The pericardial effusion was centrifuged at 5000 rpm at 4° C. for 5 min, and the supernatant was frozen at −80° C. for later detection of IL-1β levels. After the pericardial effusion was collected, the heart was perfused and removed (while ensuring the integrity of the pericardium), fixed with 10% formalin for subsequent pathological examination.

T1 sequence (Q96P20 whole entry): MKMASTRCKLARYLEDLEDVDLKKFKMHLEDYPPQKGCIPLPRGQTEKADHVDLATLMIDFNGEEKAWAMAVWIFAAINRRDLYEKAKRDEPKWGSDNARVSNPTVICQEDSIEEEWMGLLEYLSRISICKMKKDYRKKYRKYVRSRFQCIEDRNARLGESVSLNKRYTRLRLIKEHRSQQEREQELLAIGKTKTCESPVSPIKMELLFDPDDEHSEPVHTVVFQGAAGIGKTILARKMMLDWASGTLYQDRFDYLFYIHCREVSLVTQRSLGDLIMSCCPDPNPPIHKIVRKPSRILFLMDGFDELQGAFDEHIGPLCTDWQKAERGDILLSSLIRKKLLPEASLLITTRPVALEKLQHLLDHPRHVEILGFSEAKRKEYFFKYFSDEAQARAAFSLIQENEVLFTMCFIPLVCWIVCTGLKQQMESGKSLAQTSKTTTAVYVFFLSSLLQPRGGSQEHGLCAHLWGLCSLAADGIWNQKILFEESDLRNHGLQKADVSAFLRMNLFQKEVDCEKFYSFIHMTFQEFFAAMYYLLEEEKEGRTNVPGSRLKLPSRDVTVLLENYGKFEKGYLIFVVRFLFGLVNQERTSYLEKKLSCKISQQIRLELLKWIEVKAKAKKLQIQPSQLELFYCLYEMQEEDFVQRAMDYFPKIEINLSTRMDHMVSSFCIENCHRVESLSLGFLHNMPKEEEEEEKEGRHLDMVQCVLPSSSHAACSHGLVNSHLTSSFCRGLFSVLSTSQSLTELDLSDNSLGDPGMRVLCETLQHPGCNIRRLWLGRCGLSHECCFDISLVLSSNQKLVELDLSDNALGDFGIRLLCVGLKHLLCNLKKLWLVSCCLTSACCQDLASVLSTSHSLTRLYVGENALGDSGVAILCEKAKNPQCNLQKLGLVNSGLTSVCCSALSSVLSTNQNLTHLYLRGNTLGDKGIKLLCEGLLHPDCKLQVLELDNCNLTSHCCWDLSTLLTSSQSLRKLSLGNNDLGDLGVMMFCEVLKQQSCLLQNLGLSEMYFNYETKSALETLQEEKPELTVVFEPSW

CC#Cc1ccc2c(-c3ccc(Cl)cc3O)nnc(NC[C@H](O)CO)c2c1 [Compound 062, (S)-3-((4-(4-chloro-2-hydroxyphenyl)-7-(prop-1-yn-1-yl)phthalazin-1-yl)amino) propan-1,2-diol]
IC50 (NLRP3): 9.7 nM | inhibitory effect on IL-1β in the in vivo animal model (in words) (IL-1β [1]): Conclusion: Some compounds showed inhibitory effects on IL-1β in the in vivo animal model evaluation experiment, among which compound 062 had the most significant inhibitory effect. | inhibition at 10 mg/kg (IL-1β [1]; read-out: IL-1β Peritoneal lavage fluid (inhibition rate)): 94% | inhibition at 10 mg/kg (IL-1β [1]; read-out: IL-1β Plasma (inhibition rate)): 96% | effect on IL-1β compared with colchicine and tofacitinib (IL-1β [2]): better than that of colchicine and tofacitinib | production of IL-1β in the air pouch (IL-1β [2]; oral gavage, exudate 5 h after MSU): significantly inhibited the production of IL-1β in the air pouch | degree of pericardial inflammation (IL-1β [3]; 10 and 30 mg/kg oral once a day, 7 days, FIG. 3): improved the degree of pericardial inflammation | production of IL-1β in the pericardium and pericardial effusion (IL-1β [3]; 10 and 30 mg/kg oral once a day, 7 days, FIG. 4): significantly inhibited the production of IL-1β in the pericardium and pericardial effusion | effect compared with colchicine (IL-1β [3]; colchicine 100 μg/kg): comparable to that of colchicine
